According to patent US8883963B2 (Cadila Healthcare Limited, priority 2007, dated 2014):

What was measured:
[1] = molecular target: T1, Human GLP-1 receptor (Homo sapiens, UniProt P43220); assay: In vitro Human GLP-1 R agonist activity (cyclic AMP determination) in CHO/human GLP1R cells; format: cell-based
T1 construct: The full-length cDNA was cloned in pcDNA3.1(+); expressed in transfected cells

[2] = Stability in simulated intestinal fluid; format: in vitro ADME; settings: 2 μM peptidomimetic, simulated intestinal fluid pH 7.5, 37° C.; for half-life at 2 μM: read-out: half-life (t1/2) when incubated with simulated intestinal fluid
Method: (§1) Reactions were terminated by the addition of TFA/H2O (15 mL, 10% (v/v)). […] The column was equilibrated with TFA/H20, at a flow rate of 1 mL/min.

[3] = Stability in simulated gastric fluid; format: in vitro ADME; settings: 2 μM peptidomimetic, simulated gastric fluid pH 1.5, 37° C.; for half-life at 2 μM: read-out: half-life (t1/2) when incubated with simulated gastric fluid
Method: as §1

[4] = Stability in liver microsomes; format: in vitro ADME; settings: 2 μM peptidomimetic, human liver microsomes, 37° C.; for half-life at 2 μM: pH 7.8, read-out: half-life (t1/2) when incubated with liver microsomes
Method: as §1

[5] = test system: RIN5F (Rat Insulinoma) cells; assay: In vitro glucose-dependent insulin secretion (RIN5F cell assay screening protocol); format: cell-based; settings: 16.7 mM glucose load
[6] = molecular target: T2, human glucagon receptor (Homo sapiens, UniProt P47871); assay: In vitro human glucagon antagonist activity (inhibition of cAMP production) in CHO/human glucagon R cells; format: cell-based; settings: with saturated concentration of glucagon peptide
T2 construct: The full-length cDNA was cloned in pcDNA3.1 (Invitrogen); expressed in transfected cells
T2 sequence (P47871 26-477): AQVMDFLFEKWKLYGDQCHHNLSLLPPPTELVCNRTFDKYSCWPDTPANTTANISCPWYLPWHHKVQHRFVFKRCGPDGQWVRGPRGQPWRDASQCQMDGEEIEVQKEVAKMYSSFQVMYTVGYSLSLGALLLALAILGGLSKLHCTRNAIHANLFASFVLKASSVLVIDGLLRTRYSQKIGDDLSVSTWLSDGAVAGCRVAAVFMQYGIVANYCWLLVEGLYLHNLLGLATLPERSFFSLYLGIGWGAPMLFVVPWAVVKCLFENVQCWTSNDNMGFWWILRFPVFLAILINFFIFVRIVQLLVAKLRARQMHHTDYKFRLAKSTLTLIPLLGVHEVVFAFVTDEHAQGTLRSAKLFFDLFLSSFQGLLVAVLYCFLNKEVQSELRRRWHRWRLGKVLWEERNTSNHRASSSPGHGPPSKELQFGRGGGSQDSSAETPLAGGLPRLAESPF

[7] = molecular target: DPP IV (Homo sapiens, UniProt P27487); assay: Stability against DPP IV enzyme; format: in vitro ADME; settings: 37° C.; for % degradation of peptidomimetics in 24 h when incubated with DPP-IV enzyme: 2 μM peptidomimetic; for half-life at 2 μM: DPP IV enzyme, pH 7.8, 2 μM peptidomimetic, read-out: half-life (t1/2) when incubated with DPP-IV enzyme
Sequence of DPP IV (P27487 whole entry, species assumed): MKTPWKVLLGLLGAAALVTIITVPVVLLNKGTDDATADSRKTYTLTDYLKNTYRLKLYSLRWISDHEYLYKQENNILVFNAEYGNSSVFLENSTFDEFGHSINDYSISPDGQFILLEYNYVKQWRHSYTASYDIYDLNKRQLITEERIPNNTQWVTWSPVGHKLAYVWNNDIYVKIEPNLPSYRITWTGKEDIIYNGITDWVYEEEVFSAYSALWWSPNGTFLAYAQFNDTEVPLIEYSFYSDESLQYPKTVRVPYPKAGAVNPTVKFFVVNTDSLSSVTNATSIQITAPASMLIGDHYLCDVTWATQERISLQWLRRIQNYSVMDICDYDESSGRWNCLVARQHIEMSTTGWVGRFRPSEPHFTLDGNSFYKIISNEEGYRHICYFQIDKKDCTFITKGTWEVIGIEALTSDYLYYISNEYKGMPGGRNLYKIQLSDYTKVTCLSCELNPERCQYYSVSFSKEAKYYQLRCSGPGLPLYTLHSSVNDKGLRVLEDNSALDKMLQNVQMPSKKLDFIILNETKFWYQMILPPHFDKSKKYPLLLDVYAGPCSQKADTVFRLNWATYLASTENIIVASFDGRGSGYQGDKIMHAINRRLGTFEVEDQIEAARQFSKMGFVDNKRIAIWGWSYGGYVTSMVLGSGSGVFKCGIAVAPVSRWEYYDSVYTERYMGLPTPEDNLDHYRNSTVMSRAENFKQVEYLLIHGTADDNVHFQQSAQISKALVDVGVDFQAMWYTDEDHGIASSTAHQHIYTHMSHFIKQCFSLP
Method: as §1

[8] = Stability in human plasma; format: in vitro ADME; settings: 2 μM peptidomimetic, pooled human plasma, 37° C.; for half-life at 2 μM: pH 7.8, read-out: half-life (t1/2) when incubated with human plasma
Method: as §1

T1 sequence (P43220 24-463): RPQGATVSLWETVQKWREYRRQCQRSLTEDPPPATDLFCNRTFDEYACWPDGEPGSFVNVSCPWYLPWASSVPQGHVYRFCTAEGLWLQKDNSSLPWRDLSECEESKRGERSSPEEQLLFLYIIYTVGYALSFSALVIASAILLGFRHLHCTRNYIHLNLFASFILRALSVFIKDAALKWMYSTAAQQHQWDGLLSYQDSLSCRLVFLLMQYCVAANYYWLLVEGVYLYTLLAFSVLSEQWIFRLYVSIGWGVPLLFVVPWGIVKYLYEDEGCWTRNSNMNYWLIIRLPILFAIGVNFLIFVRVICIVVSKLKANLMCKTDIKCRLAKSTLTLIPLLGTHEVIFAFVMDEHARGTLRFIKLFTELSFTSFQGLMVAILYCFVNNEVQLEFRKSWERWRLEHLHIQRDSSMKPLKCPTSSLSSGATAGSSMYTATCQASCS

Row | Structure (SMILES) | Human GLP-1 R activity (cAMP release), % activity with respect to control ([1]; 1 nM test compound) [%] | Human GLP-1 R activity (cAMP release), % activity with respect to control ([1]; 10 nM test compound) [%] | Human GLP-1 R activity (cAMP release), % activity with respect to control ([1]; 100 nM test compound) [%] | Human GLP-1 R activity (cAMP release), % activity with respect to control ([1]; 1 μM test compound) [%] | Human GLP-1 R activity (cAMP release), % activity with respect to control ([1]; 10 μM test compound) [%] | % degradation of peptidomimetics in 24 h when incubated with simulated intestinal fluid [2] [%] | half-life at 2 μM [2] [h] | % degradation of peptidomimetics in 24 h when incubated with simulated gastric fluid [3] [%] | half-life at 2 μM [3] [h] | % degradation of peptidomimetics in 24 h when incubated with liver microsomes [4] [%] | Insulin secretion ([5]; 0.1 nM test compd.) [pg/µg/h] | Insulin secretion ([5]; 1 nM test compd.) [pg/µg/h] | Insulin secretion ([5]; 10 nM test compd.) [pg/µg/h] | Human Glucagon receptor antagonistic activity shown as inhibition of cAMP production of Glucagon peptide ([6]; 1 nM test compound) [pmol/ml/μg prt] | Human Glucagon receptor antagonistic activity shown as inhibition of cAMP production of Glucagon peptide ([6]; 10 nM test compound) [pmol/ml/μg prt] | Human Glucagon receptor antagonistic activity shown as inhibition of cAMP production of Glucagon peptide ([6]; 100 nM test compound) [pmol/ml/μg prt] | Human Glucagon receptor antagonistic activity shown as inhibition of cAMP production of Glucagon peptide ([6]; 1 μM test compound) [pmol/ml/μg prt] | Human Glucagon receptor antagonistic activity shown as inhibition of cAMP production of Glucagon peptide ([6]; 10 μM test compound) [pmol/ml/μg prt] | % degradation of peptidomimetics in 24 h when incubated with DPP-IV enzyme [7] [%] | % degradation of peptidomimetics in 24 h when incubated with human plasma [8] [%] | also measured
1 | CCc1cc(OC)ccc1-c1ccc(CC(CNC(CCCc2ccccc2)C(N)=O)NC[C@H](CC(=O)O)NC(=O)[C@H](CO)NC(=O)[C@@H](NC(=O)C(C)(Cc2ccccc2F)NC(=O)[C@@H](NC(=O)CNC(=O)C(CCC#N)NC(=O)C(C)(C)NC(=O)[C@@H](N)Cc2c[nH]cn2)[C@H](C)O)[C@H](C)O)cc1 (single isomer, unassigned) [compound 202] | 99 ± 0.12 | 99 ± 0.15 | 99 ± 0.18 | 99 ± 0.03 | 99 ± 0.09 | 00 | > 24 | 00 | > 24 | 33 | 16.8 ± 0.20 | 22.7 ± 0.29 | 36.6 ± 0.31 | 9 ± 0.14 | 6 ± 0.14 | 5 ± 0.13 | 3 ± 0.24 | 0 | 00 | 00 | half-life (t1/2) when incubated with liver microsomes [4]: (5) h; half-life at 2 μM [7]: > 24 h; half-life at 2 μM [8]: > 24 h
2 | CCc1cc(OC)ccc1-c1ccc(CC(NC(=O)[C@H](CC(=O)O)NC(=O)[C@H](CO)NC(=O)[C@@H](NC(=O)[C@H](Cc2ccccc2)NC(=O)[C@@H](NC(=O)CNC(=O)C(CCC#N)NC(=O)C(C)(C)NC(=O)[C@@H](N)Cc2c[nH]cn2)[C@@H](C)O)[C@@H](C)O)C(=O)NC(CCCc2ccc(OC)cc2Cl)C(N)=O)cc1 (single isomer, unassigned) [compound 84] | 38 ± 0.11 | 77 ± 0.16 | 85 ± 0.11 | 94 ± 0.08 | 97 ± 0.05 | 00 | > 24 | 45 | 4 | 85 | 12.1 ± 0.42 | 14.6 ± 0.41 | 27.8 ± 0.46 | 4 ± 0.01 | 2 ± 0.17 | 0 | 0 | 0 | 00 | 00 | half-life at 2 μM [4]: 2 h; half-life at 2 μM [7]: > 24 h; half-life at 2 μM [8]: > 24 h
3 | CCc1cc(OC)ccc1-c1ccc(CC(NC(=O)[C@H](CC(=O)O)NC(=O)[C@H](CO)NC(=O)[C@@H](NC(=O)[C@H](Cc2ccccc2)NC(=O)[C@@H](NC(=O)CNC(=O)C(CCC#N)NC(=O)C(C)(C)NC(=O)[C@@H](N)Cc2c[nH]cn2)[C@@H](C)O)[C@@H](C)O)C(=O)NC(CCCc2ccccc2F)C(N)=O)cc1 (single isomer, unassigned) [compound 77] | 40 ± 0.09 | 81 ± 0.07 | 87 ± 0.04 | 95 ± 0.01 | 98 ± 0.08 | 100 | 0.5 | 100 | 0.5 | 100 | 15.6 ± 0.33 | 21.8 ± 0.16 | 35.6 ± 0.26 | 20 ± 0.06 | 18 ± 0.09 | 16 ± 0.01 | 14 ± 0.03 | 12 ± 0.01 | 74 | 75 | half-life at 2 μM [4]: 0.5 h; half-life (t1/2) when incubated with human plasma [8]: (9) h
4 | CCc1cc(OC)ccc1-c1ccc(CC(NC(=O)[C@H](CC(=O)O)NC(=O)[C@H](CO)NC(=O)[C@@H](NC(=O)C(C)(Cc2ccccc2F)NC(=O)[C@@H](NC(=O)CNC(=O)C(CCC#N)NC(=O)C(C)(C)NC(=O)[C@@H](N)Cc2c[nH]cn2)[C@H](C)O)[C@H](C)O)C(=O)N(C)C(CCCc2ccccc2)C(N)=O)cc1 (single isomer, unassigned) [compound 130] | 39 ± 0.10 | 81 ± 0.08 | 89 ± 0.09 | 96 ± 0.11 | 99 ± 0.16 | 55 | – | 12 | – | 79 | 17.1 ± 0.11 | 23.1 ± 0.16 | 37.0 ± 0.29 | 5 ± 0.04 | 3 ± 0.02 | 1 ± 0.11 | 0 | 0 | 76 | 78 | half-life (t1/2) when incubated with simulated intestinal fluid [2]: (6) h; half-life (t1/2) when incubated with simulated gastric fluid [3]: (8) h; half-life at 2 μM [4]: 1 h; half-life at 2 μM [7]: 9 h; half-life at 2 μM [8]: 8 h
